Measured values from patent US11021444B2, “Antiviral compounds” (priority 2013, dated 2021).
Where two headings read alike, the source gives them in different places.

Legend:
[1] = system: Respiratory Syncytial Virus (RSV) long strain; assay: microbe, parasite or virus in culture; assay type: cell-based; details: human respiratory syncytial virus, Tables A and B list compounds by EC50 band
Procedure, shortened: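 CPE-reduction format: viability measured colorimetrically with CCK-8 (450 nm, 630 nm reference) after 3-4 h, following 5-day infection at 37 °C, 5% CO2. Cells were HEp-2; inoculum 100 TCID50/well; duplicate 9-point 1/3 series starting at 100 μM or 1 μM.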

[2] = Cytotoxicity Determination (CCK-8, without addition of virus); assay type: cell-based; details: human, 50% cytotoxicity concentration (CC50)
Procedure, shortened: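 Cytotoxicity was measured by CCK-8 after 3-4 hours at 37 °C, following 5 days of uninfected exposure at 37 °C and 5% CO2. Compounds ran as duplicate 7-point 1/2 dilutions starting at 100 μM, with 1% final DMSO. HEp-2 cells had been plated at 1,500/well the day before.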

recombinant RSV complex = recombinant RSV complex (Human respiratory syncytial virus A, UniProt P28887); assay: RSV Polymerase Inhibition Assay; assay type: biochemical
Procedure, shortened: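 Inhibition measured as reduced incorporation of radiolabel into RNA products, detected by scintillation counting. Reactions: recombinant RSV complex (10 nM), RNA oligonucleotides, Tris-HCl pH 7.5, 6 mM MgCl2, inhibitor titration, 2 h at 30 °C, EDTA stop.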

RSV replicon = assay: microbe, parasite or virus in culture; assay type: cell-based; details: human respiratory syncytial virus, read-out: EC50, the concentration of the drug required for reducing RSV replicon RNA by 50%
Description: The Renilla Luciferase Assay System (Promega, Cat. #E2820) was used to measure anti-RSV replicon activity. […] Luminescence was recorded using a Perkin Elmer multilabel counter Victor3V. EC50, the concentration of the drug required for reducing RSV replicon RNA by 50% in relation to the untreated cell control value, was calculated from the plot of percentage reductions of the optical density (OD) value against the drug concentrations using the Microsoft Excel forecast function.

[3] = HEp-2, 120 h, read-out: 50% effective concentration (EC50), HEp-2 cells infected with RSV long strain, 5 days, CCK-8 readout
[4] = 120 h, read-out: 50% effective concentration (EC50), HEp-2 cells infected with RSV long strain, 5 days, CCK-8 readout

Chain of recombinant RSV complex (P28887 whole entry): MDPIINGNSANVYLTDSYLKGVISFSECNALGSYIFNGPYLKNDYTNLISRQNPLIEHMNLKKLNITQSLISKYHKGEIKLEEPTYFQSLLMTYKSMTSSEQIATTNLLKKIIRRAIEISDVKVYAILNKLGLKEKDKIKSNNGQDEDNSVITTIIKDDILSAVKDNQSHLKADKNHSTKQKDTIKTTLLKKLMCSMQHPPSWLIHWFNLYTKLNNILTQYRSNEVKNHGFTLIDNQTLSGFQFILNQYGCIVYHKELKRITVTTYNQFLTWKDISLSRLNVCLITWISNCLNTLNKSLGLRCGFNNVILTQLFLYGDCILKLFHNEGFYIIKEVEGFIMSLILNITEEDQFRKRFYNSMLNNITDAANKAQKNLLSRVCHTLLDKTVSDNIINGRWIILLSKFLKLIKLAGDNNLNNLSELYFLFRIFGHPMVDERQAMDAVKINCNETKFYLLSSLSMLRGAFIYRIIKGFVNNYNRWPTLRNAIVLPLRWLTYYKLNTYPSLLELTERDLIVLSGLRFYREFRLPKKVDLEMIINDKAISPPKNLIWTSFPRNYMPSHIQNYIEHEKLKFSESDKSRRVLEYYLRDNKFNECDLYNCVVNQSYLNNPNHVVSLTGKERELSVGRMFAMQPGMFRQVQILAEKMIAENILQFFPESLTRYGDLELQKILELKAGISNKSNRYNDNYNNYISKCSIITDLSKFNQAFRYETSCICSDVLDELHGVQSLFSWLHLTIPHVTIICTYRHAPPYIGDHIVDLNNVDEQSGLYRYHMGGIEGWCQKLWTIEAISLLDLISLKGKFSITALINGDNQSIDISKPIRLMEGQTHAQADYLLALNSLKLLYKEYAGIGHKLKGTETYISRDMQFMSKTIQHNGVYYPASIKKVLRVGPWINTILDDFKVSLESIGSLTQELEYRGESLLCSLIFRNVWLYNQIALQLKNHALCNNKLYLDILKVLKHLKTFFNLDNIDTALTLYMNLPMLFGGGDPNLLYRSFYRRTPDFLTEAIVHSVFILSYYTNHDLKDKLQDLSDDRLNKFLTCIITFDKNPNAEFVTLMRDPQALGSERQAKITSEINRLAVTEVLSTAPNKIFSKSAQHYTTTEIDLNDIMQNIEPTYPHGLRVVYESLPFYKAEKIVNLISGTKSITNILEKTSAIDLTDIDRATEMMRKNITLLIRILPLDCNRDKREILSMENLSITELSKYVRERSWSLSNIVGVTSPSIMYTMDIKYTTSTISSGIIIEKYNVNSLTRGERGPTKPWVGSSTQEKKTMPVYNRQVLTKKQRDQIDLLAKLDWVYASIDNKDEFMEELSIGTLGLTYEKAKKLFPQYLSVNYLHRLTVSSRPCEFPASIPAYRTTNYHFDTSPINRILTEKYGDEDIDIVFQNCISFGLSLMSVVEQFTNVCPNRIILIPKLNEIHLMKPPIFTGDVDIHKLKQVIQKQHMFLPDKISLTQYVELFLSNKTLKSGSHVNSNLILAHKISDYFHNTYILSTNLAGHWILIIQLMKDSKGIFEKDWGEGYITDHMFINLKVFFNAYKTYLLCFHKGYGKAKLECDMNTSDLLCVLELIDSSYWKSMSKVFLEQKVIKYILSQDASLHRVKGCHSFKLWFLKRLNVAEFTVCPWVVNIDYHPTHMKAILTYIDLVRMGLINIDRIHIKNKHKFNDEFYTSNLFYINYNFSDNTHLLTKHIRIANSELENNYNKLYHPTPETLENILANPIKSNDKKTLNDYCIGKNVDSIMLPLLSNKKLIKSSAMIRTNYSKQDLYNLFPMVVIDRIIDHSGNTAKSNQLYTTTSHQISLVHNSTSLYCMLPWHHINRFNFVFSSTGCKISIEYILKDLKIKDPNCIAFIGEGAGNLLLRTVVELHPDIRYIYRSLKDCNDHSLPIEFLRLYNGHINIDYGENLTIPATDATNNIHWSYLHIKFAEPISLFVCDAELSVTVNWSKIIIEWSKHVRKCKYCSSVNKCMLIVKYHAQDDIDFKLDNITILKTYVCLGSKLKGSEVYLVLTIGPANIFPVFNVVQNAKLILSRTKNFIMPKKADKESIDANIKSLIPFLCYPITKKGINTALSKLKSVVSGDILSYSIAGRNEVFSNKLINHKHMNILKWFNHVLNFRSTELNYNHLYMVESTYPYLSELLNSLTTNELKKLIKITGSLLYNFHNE
Chain of recombinant RSV complex (P03421 whole entry, further chain): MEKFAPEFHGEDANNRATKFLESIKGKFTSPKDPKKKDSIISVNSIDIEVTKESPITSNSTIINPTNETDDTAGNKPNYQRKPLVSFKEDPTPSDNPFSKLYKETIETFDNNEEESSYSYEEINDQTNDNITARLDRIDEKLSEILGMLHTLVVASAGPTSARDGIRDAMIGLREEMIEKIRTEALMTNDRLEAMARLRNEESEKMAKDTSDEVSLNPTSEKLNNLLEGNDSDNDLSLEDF

SMILES	EC50 [1, 3]	CC50 at 5 days [2]	IC50 (recombinant RSV complex)	EC50 (RSV replicon)	EC50 [1, 4]
COc1cc(C(=O)NCC(O)(c2cc(C(C)(N)CF)cc(-c3ccc(F)cc3)n2)C(F)(F)F)ccc1OCC(N)=O (stereo not shown) [Compound 615]	< 1000 nM	> 100000 nM	< 1000 nM	< 1000 nM	
COc1cc(C(=O)NCC(O)(c2cc(C(C)(C)N)cc(-c3ccc(F)cc3)n2)C2CC2)ccc1OCCO (stereo not shown) [Compound 634]	< 1000 nM	> 100000 nM	< 1000 nM	< 1000 nM	
COc1cc(C(=O)NCC(O)(c2cc3c(c(-c4ccc(F)c(F)c4)n2)OCC3(C)N)C(F)(F)F)ccc1OCCO (stereo not shown) [Compound 663]	< 1000 nM	10000 to 100000 nM	< 1000 nM	< 1000 nM	
COc1cc(C(=O)NCC(N)(c2ccc(OC)c(-c3ccc(F)c(Cl)c3)n2)C(F)(F)F)ccc1OC1CC1 (stereo not shown) [Compound 503]	< 1000 nM	10000 to 100000 nM	< 1000 nM	< 1000 nM	
COc1cc(C(=O)NCC(O)(c2cc3c(c(-c4ccc(F)c(Cl)c4)n2)CNC3(C)C)C(F)(F)F)ccc1OC1CC1 (stereo not shown) [Compound 526]	< 1000 nM	10000 to 100000 nM	< 1000 nM	< 1000 nM	
COc1cc(C(=O)OCC(O)(CN)c2ccc(OC)c(-c3ccc(F)c(Cl)c3)n2)ccc1OC1CC1 (stereo not shown) [Compound 383]	< 1000 nM	10000 to 100000 nM	< 1000 nM	< 1000 nM	
COc1cc(C(=O)NCC(O)(c2ccc(OC)c(-c3ccc(F)c(Cl)c3)n2)C(F)(F)F)ccc1OC1CCNC1=O (stereo not shown) [Compound 349]	< 1000 nM	10000 to 100000 nM	< 1000 nM	< 1000 nM	
COc1cc(C(=O)NCC2(c3cccc(-c4csc5c(F)cccc45)n3)COC2)ccc1OCCO [Compound 163]		10000 to 100000 nM		1000 to 50000 nM	
CNC(C)(C)c1cc(-c2ccc(F)c(Cl)c2)nc(C(O)(CNC(=O)c2ccc(OCCO)c(OC)c2)C(F)(F)F)c1 (stereo not shown) [Compound 491]	< 1000 nM	10000 to 100000 nM	< 1000 nM	< 1000 nM	
COc1cc(C(=O)NCC(O)(c2cc(C(C)(C)N)cc(-c3ccc(F)c(Cl)c3)n2)C(F)(F)F)ccc1OCCO (stereo not shown) [Compound 489]	< 1000 nM	10000 to 100000 nM	< 1000 nM	< 1000 nM	
COc1cc(C(=O)NCC(O)(c2cc(C(C)(N)CF)cc(-c3ccc(F)c(Cl)c3)n2)C(F)(F)F)ccc1OCCO (stereo not shown) [Compound 540]		10000 to 100000 nM	< 1000 nM	< 1000 nM	< 1000 nM
COc1cc(C(=O)NCC(O)(c2cc(C(C)(C)N)cc(-c3ccc(F)c(Cl)c3)n2)C(F)(F)F)ccc1OCC(N)=O (stereo not shown) [Compound 322]	< 1000 nM	10000 to 100000 nM	< 1000 nM	< 1000 nM	
COc1cc(C(=O)NCC(O)(c2cc(CN)cc(-c3ccc(F)c(Cl)c3)n2)C(F)(F)F)ccc1OC1CC1 (stereo not shown) [Compound 327]	< 1000 nM	10000 to 100000 nM	< 1000 nM	< 1000 nM	
COc1cc(C(=O)NCC(O)(c2cc3c(c(-c4ccc(C(=O)O)cc4)n2)OCC3(C)N)C(F)(F)F)ccc1OCCO (stereo not shown) [Compound 675]		> 100000 nM		< 1000 nM	
COc1cc(C(=O)NCC(O)(c2cc3c(c(-c4ccc(F)c(Cl)c4)n2)OCCC3(C)C)C(F)(F)F)ccc1OC[C@@H](C)O (stereo partly shown) [Compound 346]	< 1000 nM	10000 to 100000 nM		< 1000 nM	
COc1cc(C(=O)NCC(O)(c2cc3c(c(-c4ccc(C#N)cc4)n2)OCC3(C)N)C(F)(F)F)ccc1OC1CC1 (stereo not shown) [Compound 542]		10000 to 100000 nM		< 1000 nM	< 1000 nM
COc1cc(C(=O)NCC(O)(c2cc(C(C)(C)N)cc(-c3ccc(F)c(Cl)c3)n2)C(F)(F)F)ccc1OC1CC1 (single isomer, unassigned) [Compound 272]	< 1000 nM		< 1000 nM	< 1000 nM	
COc1cc(C(=O)NCC(O)(c2cc(C(C)(C)N)cc(-c3ccc(F)c(Cl)c3)n2)C(F)(F)F)ccc1OC1CC(F)C1 (stereo not shown) [Compound 323]	< 1000 nM		< 1000 nM	< 1000 nM	
COc1cc(C(=O)NCC(O)(c2ccc(OC)c(-c3ccc(F)c(Cl)c3)n2)C(F)(F)F)ccc1OC[C@@H](C)O (stereo partly shown) [Compound 336]	< 1000 nM	10000 to 100000 nM		< 1000 nM	
COc1cc(C(=O)NCC(O)(c2cc(C(C)(C)N)cc(-c3ccc(F)c(Cl)c3)n2)C(F)(F)F)ccc1OC1CC1(F)F (stereo not shown) [Compound 324]	< 1000 nM		< 1000 nM	< 1000 nM	
